# Measured values taken from patent US9045556B2, “Therapeutic agent for cancer” (NEC Corporation, priority 2007, dated 2015).
# Tested on: EG7 cells
smiles,measurement,value
CC[C@H](C)[C@H](NC(=O)[C@@H](NC(=O)[C@@H](N)CO)[C@@H](C)CC)C(=O)N[C@@H](CC(N)=O)C(=O)N[C@@H](Cc1ccccc1)C(=O)N[C@@H](CCC(=O)O)C(=O)N[C@@H](CCCCN)C(=O)N[C@@H](CC(C)C)C(=O)O [OVA-I peptide],cytotoxic activity of splenocytes against EG7,only low cytotoxic activity was induced
